{
  "source": "ChEMBL document CHEMBL4007392",
  "about": "“Modulating Mineralocorticoid Receptor with Non-steroidal Antagonists. New Opportunities for the Development of Potent and Selective Ligands without Off-Target Side Effects” (J Med Chem, 2017)",
  "key": {"[1]": {"biological_target": "T1, Mineralocorticoid receptor (Homo sapiens, UniProt P08235)", "T1 sequence (P08235 whole entry)": "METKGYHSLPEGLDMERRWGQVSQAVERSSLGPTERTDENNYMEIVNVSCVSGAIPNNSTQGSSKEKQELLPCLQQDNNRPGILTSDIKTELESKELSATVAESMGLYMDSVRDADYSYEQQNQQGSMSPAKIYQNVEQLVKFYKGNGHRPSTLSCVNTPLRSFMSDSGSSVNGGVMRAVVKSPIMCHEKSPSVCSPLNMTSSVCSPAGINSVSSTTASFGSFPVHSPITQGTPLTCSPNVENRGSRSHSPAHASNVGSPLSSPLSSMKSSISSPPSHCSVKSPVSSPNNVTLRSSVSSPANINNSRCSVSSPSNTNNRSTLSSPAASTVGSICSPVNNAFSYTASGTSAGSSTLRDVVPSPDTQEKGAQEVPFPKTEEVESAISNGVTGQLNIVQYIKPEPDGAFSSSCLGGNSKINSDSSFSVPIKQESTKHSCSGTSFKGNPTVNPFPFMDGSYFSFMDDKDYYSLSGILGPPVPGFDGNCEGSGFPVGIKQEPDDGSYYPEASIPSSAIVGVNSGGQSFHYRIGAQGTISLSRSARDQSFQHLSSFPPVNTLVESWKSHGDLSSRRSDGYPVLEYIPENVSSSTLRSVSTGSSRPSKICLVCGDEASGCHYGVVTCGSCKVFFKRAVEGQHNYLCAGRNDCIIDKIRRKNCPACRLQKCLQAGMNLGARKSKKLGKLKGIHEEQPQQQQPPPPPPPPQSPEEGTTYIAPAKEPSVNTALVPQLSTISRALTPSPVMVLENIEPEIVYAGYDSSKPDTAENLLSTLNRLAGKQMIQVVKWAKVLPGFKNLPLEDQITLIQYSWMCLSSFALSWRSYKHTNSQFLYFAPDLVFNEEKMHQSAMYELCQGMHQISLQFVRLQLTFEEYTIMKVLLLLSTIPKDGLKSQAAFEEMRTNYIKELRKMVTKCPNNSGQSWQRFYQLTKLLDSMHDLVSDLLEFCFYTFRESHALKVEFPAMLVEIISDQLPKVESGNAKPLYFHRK", "assay": "Antagonist activity at Gal4-fused human MR LBD (672 to 984 residues) expressed in HEK293T cells assessed as inhibition of aldosterone-induced transactivation activity after 24 hrs by luciferase reporter gene assay", "assay_type": "cell-based, HEK-293T"}, "Rattus norvegicus [2]": {"test_system": "Rattus norvegicus", "assay": "In vivo antagonist activity at MR in rat assessed as inhibition aldosterone-induced decrease in urinary sodium/potassium ratio at 3 mg/kg, po after 20 hrs", "assay_type": "functional"}, "Rattus norvegicus [3]": {"test_system": "Rattus norvegicus", "assay": "In vivo antagonist activity at MR in rat assessed as inhibition aldosterone-induced decrease in urinary sodium/potassium ratio at 30 mg/kg, po after 20 hrs", "assay_type": "functional"}, "[4]": {"biological_target": "T2, Mineralocorticoid receptor (Homo sapiens) (UniProt P08235)", "T2 sequence (whole entry)": "T1 sequence (P08235 whole entry)", "assay": "Antagonist activity at full-length human MR expressed in CHO-K1 cells assessed as inhibition of aldosterone-induced response measured after overnight incubation by luminesence analysis", "assay_type": "cell-based"}, "[5]": {"assay": "Clearance in rat", "assay_type": "ADME", "settings": "in vivo"}, "[6]": {"assay": "Half life in rat", "assay_type": "ADME", "settings": "in vivo"}, "[7]": {"assay": "Half life in human liver microsomes", "assay_type": "ADME, microsome"}, "[8]": {"assay": "Half life in human hepatocytes", "assay_type": "ADME, cell-based, Hepatocyte"}, "[9]": {"biological_target": "T1, Mineralocorticoid receptor", "assay": "Displacement of [3H]-cortisol from MR overexpressed in human 293 cells measured after 2 hrs by Microbeta scintillation counting method", "assay_type": "cell-based"}, "[10]": {"biological_target": "T1, Mineralocorticoid receptor", "assay": "Displacement of [3H]-Aldosterone from MR overexpressed in human 293 cells measured after overnight incubation by TopCount method", "assay_type": "cell-based"}, "Glucocorticoid receptor": {"biological_target": "T3, Glucocorticoid receptor (Homo sapiens, UniProt P04150)", "T3 sequence (P04150 whole entry)": "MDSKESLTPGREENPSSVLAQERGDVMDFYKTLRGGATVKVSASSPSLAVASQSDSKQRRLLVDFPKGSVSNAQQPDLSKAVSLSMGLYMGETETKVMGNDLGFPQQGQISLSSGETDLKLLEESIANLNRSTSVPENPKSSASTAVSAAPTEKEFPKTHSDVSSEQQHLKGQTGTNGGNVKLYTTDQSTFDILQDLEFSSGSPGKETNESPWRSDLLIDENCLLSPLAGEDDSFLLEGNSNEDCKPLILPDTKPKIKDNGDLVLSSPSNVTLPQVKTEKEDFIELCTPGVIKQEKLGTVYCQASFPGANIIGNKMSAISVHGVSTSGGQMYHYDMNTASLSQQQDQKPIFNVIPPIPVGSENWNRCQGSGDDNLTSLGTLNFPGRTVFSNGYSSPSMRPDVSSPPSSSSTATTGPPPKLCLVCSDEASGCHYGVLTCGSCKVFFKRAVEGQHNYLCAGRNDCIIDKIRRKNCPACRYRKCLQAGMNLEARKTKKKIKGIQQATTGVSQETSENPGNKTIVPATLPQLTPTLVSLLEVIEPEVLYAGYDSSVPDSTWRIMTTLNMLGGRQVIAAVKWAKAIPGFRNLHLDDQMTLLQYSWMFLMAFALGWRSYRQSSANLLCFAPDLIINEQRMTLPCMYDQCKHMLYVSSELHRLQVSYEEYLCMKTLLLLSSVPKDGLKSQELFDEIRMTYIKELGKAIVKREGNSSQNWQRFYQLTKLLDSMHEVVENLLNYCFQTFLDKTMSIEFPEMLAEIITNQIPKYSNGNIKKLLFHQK", "assay": "Displacement of [3H]-dexamethasone from GR overexpressed in human 293 cells measured after overnight incubation by TopCount method", "assay_type": "cell-based"}, "[11]": {"biological_target": "T1, Mineralocorticoid receptor", "assay": "Antagonist activity at Gal4-fused MR LBD (unknown origin) expressed in human Huh7 cells assessed as inhibition of aldosterone-induced transcriptional activity after 3 hrs by luciferase reporter gene assay", "assay_type": "cell-based"}, "[12]": {"biological_target": "T1, Mineralocorticoid receptor", "assay": "Antagonist activity at Gal4-fused human MR LBD (734 to 985 residues) expressed in CHO-K1 cells after 5 to 6 hrs by luciferase reporter gene assay", "assay_type": "cell-based"}, "Homo sapiens": {"species_on_record": "Homo sapiens", "assay": "Ratio of IC50 for Gal4-fused human AR expressed in CHO-K1 cells to IC50 for Gal4-fused human MR expressed in CHO-K1 cells", "assay_type": "cell-based"}, "Rattus norvegicus [13]": {"test_system": "Rattus norvegicus", "assay": "In vivo antagonist activity at MR in rat assessed as inhibition aldosterone-induced decrease in urinary sodium/potassium ratio at 30 mg/kg, po after 8 hrs", "assay_type": "functional"}, "[14]": {"biological_target": "T1, Mineralocorticoid receptor", "assay": "Displacement of [3H]-Aldosterone from MR overexpressed in human 293 cells measured after 2 hrs by Microbeta scintillation counting method", "assay_type": "cell-based"}, "[15]": {"biological_target": "T1, Mineralocorticoid receptor", "assay": "Antagonist activity at human MR overexpressed in HEK293 cells assessed as inhibition of aldosterone-induced response measured after overnight incubation by luciferase reporter gene assay", "assay_type": "cell-based"}},
  "data": [
    {"smiles": "CC(=O)Oc1ccc(CCc2ccc3c(c2)NC(=O)CO3)c(C)c1", "values": [
      {"measurement": "IC50", "setting": "[1]", "value": "< 2", "unit": "nM"}
    ]},
    {"smiles": "Cc1c(C(=O)Nc2ccc(S(C)(=O)=O)cc2)cn(CCO)c1-c1ccccc1C(F)(F)F", "note": "(single isomer, unassigned; atropisomer 2)", "values": [
      {"measurement": "inhibition in vivo at 3 mg/kg", "setting": "Rattus norvegicus [2]", "value": 56, "unit": "%"}
    ]},
    {"smiles": "CC(=O)S[C@@H]1CC2=CC(=O)CC[C@]2(C)[C@H]2CC[C@@]3(C)[C@@H](CC[C@@]34CCC(=O)O4)[C@H]12", "note": "[SPIRONOLACTONE]", "values": [
      {"measurement": "inhibition in vivo at 30 mg/kg", "setting": "Rattus norvegicus [3]", "value": "< 20", "unit": "%"}
    ]},
    {"smiles": "CCC(O)C(CC)(c1ccc(C(F)(F)F)cc1)n1ncc2c(NS(C)(=O)=O)cccc21", "note": "(stereo not given)", "values": [
      {"measurement": "Inhibitory potency", "setting": "[4]", "value": 4, "unit": "nM"},
      {"measurement": "clearance", "setting": "[5]", "value": 24, "unit": "mL/min/kg"},
      {"measurement": "half-life", "setting": "[6]", "value": 5.3, "unit": "h"},
      {"measurement": "half-life", "setting": "[7]", "value": 1.2, "unit": "h"},
      {"measurement": "half-life", "setting": "[8]", "value": "> 1.5", "unit": "h"}
    ]},
    {"smiles": "O=c1[nH]c2cc(/C=C3\\c4ccccc4COc4cc(F)ccc43)ccc2n1[C@@H]1C[C@@H]2COCCN2C1", "values": [
      {"measurement": "Ki", "setting": "[9]", "value": 9, "unit": "nM"}
    ]},
    {"smiles": "Cc1ccc(C(C)(c2c[nH]c3c(NS(C)(=O)=O)cccc23)C2CC2)cc1", "note": "(stereo not given)", "values": [
      {"measurement": "Ki", "setting": "[10]", "value": "≤ 500", "unit": "nM"},
      {"measurement": "Ki", "setting": "Glucocorticoid receptor", "value": "≤ 500", "unit": "nM"}
    ]},
    {"smiles": "C[C@@H]1CN(c2ccc3c(n2)NC(=O)CO3)CCO1", "values": [
      {"measurement": "IC50", "setting": "[11]", "value": 3050, "unit": "nM"}
    ]},
    {"smiles": "C[C@@H]1CN(c2ccc3c(c2)NC(=O)CO3)[C@H](c2ccccc2F)CO1", "values": [
      {"measurement": "IC50", "setting": "[11]", "value": 33.4, "unit": "nM"}
    ]},
    {"smiles": "CCOC(=O)C1=C(C)NC(C)=C(C(C)=O)[C@H]1c1cccc2c(=O)cc(C)oc12", "values": [
      {"measurement": "IC50", "setting": "[12]", "value": "28 to 43", "unit": "nM"},
      {"measurement": "Ratio IC50", "setting": "Homo sapiens", "value": 160}
    ]},
    {"smiles": "COC(=O)[C@@H]1CC2=CC(=O)CC[C@]2(C)[C@@]23O[C@@H]2C[C@@]2(C)[C@@H](CC[C@@]24CCC(=O)O4)[C@H]13", "note": "[EPLERENONE]", "values": [
      {"measurement": "inhibition in vivo at 30 mg/kg", "setting": "Rattus norvegicus [13]", "value": 8, "unit": "%"}
    ]},
    {"smiles": "CC(c1ccccc1)(c1c[nH]c2c(NS(C)(=O)=O)cccc12)C1CC1", "note": "(stereo not given)", "values": [
      {"measurement": "Ki", "setting": "[10]", "value": "≤ 500", "unit": "nM"},
      {"measurement": "Ki", "setting": "Glucocorticoid receptor", "value": "≤ 500", "unit": "nM"}
    ]},
    {"smiles": "CCC(c1ccc(C(F)(F)F)cc1)(C(O)C(F)F)n1ncc2c(NS(C)(=O)=O)cccc21", "note": "(stereo not given)", "values": [
      {"measurement": "Inhibitory potency", "setting": "[4]", "value": 11, "unit": "nM"},
      {"measurement": "clearance", "setting": "[5]", "value": 3.8, "unit": "mL/min/kg"},
      {"measurement": "half-life", "setting": "[6]", "value": 9.9, "unit": "h"},
      {"measurement": "half-life", "setting": "[7]", "value": 1.03, "unit": "h"},
      {"measurement": "half-life", "setting": "[8]", "value": "> 1.5", "unit": "h"}
    ]},
    {"smiles": "C[C@H](CN1CCOCC1)n1/c(=N\\C#N)[nH]c2cc(/C=C3\\c4ccccc4COc4cc(F)ccc43)ccc21", "values": [
      {"measurement": "Ki", "setting": "[14]", "value": 0.4, "unit": "nM"},
      {"measurement": "IC50", "setting": "[15]", "value": 21, "unit": "nM"}
    ]}
  ]
}
